According to patent publication US12338256B2, “Aza-tetracyclic oxazepine compounds and uses thereof” (Genentech, Inc., priority 2022, dated 2025):

Tests used:
[1] = tested on: H1975 (KRAS wild type human lung adenocarcinoma cell line); assay: KRAS 3D-Cell Proliferation Assay, H1975 (Example 503); format: cell-based; conditions: Homo sapiens, NCI-H1975, 168 h, H1975 3D culture, 7 days, CellTiter-Glo 3D; read-out: Prolif H1975 3D ATP IC50
Procedure, shortened: (§1)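 IC50s come from a 4-parameter Hill fit of luminescence (CellTiter-Glo 3D) normalized between DMSO (0%) and 1 μM staurosporine (100%). Cells in low-attachment 3D culture, RPMI-1640 with 10% FBS, received serial compound dilutions (0.3% DMSO) after overnight and were incubated 7 days at 37 °C.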

[2] = tested on: HPAC (homozygous mutant KRAS G12D human pancreatic cell line); assay: KRAS 3D-Cell Proliferation Assay, HPAC (Example 503); format: cell-based; conditions: Homo sapiens, HPAC, 168 h, HPAC 3D culture, 7 days, CellTiter-Glo 3D; read-out: Prolif HPAC 3D ATP IC50
Procedure, shortened: as §1

Row | SMILES | IC50 [1] [nM] | IC50 [2] [nM]
1 | Cc1c(F)c(N)cc(-c2nc3c4c(nc(OCC5(CN6CC6(C)C)CC5)nc4c2F)N2C[C@H]4CC[C@H](N4)[C@H]2[C@H](C)O3)c1C(F)(F)F (stereo partly drawn) [Compound 259, 5-((5S,5aS,6S,9R)-12-((1-((2,2-Dimethylaziridin-1-yl)methyl)cyclopropyl)methoxy)-1-fluoro-5-methyl-5a,6,7,8,9,10-hexahydro-5H-4-oxa-3,10a,11,13,14-pentaaza-6,9-methanonaphtho[1,8-ab]heptalen-2-yl)-2-fluoro-3-methyl-4-(trifluoromethyl)aniline] | 1970 | 12.3
2 | C[C@@H]1Oc2nc(-c3cc(O)cc4ccc(F)c(F)c34)c(F)c3nc(OC[C@@]45CCCN4C[C@H](F)C5)nc(c23)N2C[C@H]3CC[C@H](N3)[C@@H]12 [Compound 82, 5,6-Difluoro-4-((5S,5aS,6S,9R)-1-fluoro-12-(((2R,7aS)-2-fluorotetrahydro-1H-pyrrolizin-7a(5H)-yl)methoxy)-5-methyl-5a,6,7,8,9,10-hexahydro-5H-4-oxa-3,10a,11,13,14-pentaaza-6,9-methanonaphtho[1,8-ab]heptalen-2-yl)naphthalen-2-ol] | 20000 | 20000
3 | CCc1c(F)c(N)cc(-c2nc3c4c(nc(OC[C@@H]5CC[C@H]6COCCN65)nc4c2F)N2C[C@H]4CC[C@H](N4)[C@H]2[C@H](C)O3)c1C(F)(F)F [Compound 232, 3-Ethyl-2-fluoro-5-((5S,5aS,6S,9R)-1-fluoro-12-(((6S,8aS)-hexahydro-1H-pyrrolo[2,1-c][1,4]oxazin-6-yl)methoxy)-5-methyl-5a,6,7,8,9,10-hexahydro-5H-4-oxa-3,10a,11,13,14-pentaaza-6,9-methanonaphtho[1,8-ab]heptalen-2-yl)-4-(trifluoromethyl)aniline] | 10500 | 77
4 | CO[C@@H]1CN(CC2(COc3nc4c5c(nc(-c6cc(N)nc(C)c6C(F)(F)F)c(F)c5n3)O[C@@H](C)[C@@H]3[C@@H]5CC[C@H](CN43)N5)CC2)C[C@@H]1F [Compound 290, 4-((5S,5aS,6S,9R)-1-fluoro-12-((1-(((3S,4R)-3-fluoro-4-methoxypyrrolidin-1-yl)methyl)cyclopropyl)methoxy)-5-methyl-5a,6,7,8,9,10-hexahydro-5H-4-oxa-3,10a,11,13,14-pentaaza-6,9-methanonaphtho[1,8-ab]heptalen-2-yl)-6-methyl-5-(trifluoromethyl)pyridin-2-amine] | 2780 | 2.53
5 | Cc1c(F)c(N)cc(-c2nc3c4c(nc(OC[C@@]5(CC(F)F)CCCN5C)nc4c2F)N2C[C@H]4CC[C@H](N4)[C@H]2[C@H](C)O3)c1C(F)(F)F (single isomer, unassigned) [150 (isomer 1)] | 3770 | 13.7
6 | CCc1cccc2nc(N)cc(-c3nc4c5c(nc(OC[C@@]67CCCN6C[C@H](F)C7)nc5c3F)N3C[C@H]5CC[C@H](N5)[C@H]3[C@H](C)O4)c12 [Compound 179, 5-Ethyl-4-((5S,5aS,6S,9R)-1-fluoro-12-(((2R,7aS)-2-fluorotetrahydro-1H-pyrrolizin-7a(5H)-yl)methoxy)-5-methyl-5a,6,7,8,9,10-hexahydro-5H-4-oxa-3,10a,11,13,14-pentaaza-6,9-methanonaphtho[1,8-ab]heptalene-2-yl)quinolin-2-amine] | 8410 | 294
7 | Cc1nc(N)cc(-c2nc3c4c(nc(OC[C@@]56CCCN5C[C@H](F)C6)nc4c2F)N2C[C@H]4CC[C@H](N4)[C@H]2[C@H](C)O3)c1CC(F)F [Compound 189, 5-(2,2-Difluoroethyl)-4-((5S,5aS,6S,9R)-1-fluoro-12-(((2R,7aS)-2-fluorotetrahydro-1H-pyrrolizin-7a(5H)-yl)methoxy)-5-methyl-5a,6,7,8,9,10-hexahydro-5H-4-oxa-3,10a,11,13,14-pentaaza-6,9-methanonaphtho[1,8-ab]heptalene-2-yl)-6-methylpyridin-2-amine] | 20000 | 95.4
8 | C[C@@H]1Oc2nc(-c3cccc4ccc(N)nc34)c(F)c3nc(OC[C@@]45CCCN4C[C@H](F)C5)nc(c23)N2C[C@H]3CC[C@H](N3)[C@@H]12 [Compound 114, 8-((5S,5aS,6S,9R)-1-Fluoro-12-(((2R,7aS)-2-fluorotetrahydro-1H-pyrrolizin-7a(5H)-yl)methoxy)-5-methyl-5a,6,7,8,9,10-hexahydro-5H-4-oxa-3,10a,11,13,14-pentaaza-6,9-methanonaphtho[1,8-ab]heptalen-2-yl)quinolin-2-amine] | 20000 | 2000
9 | Cc1c(F)c(N)cc(-c2nc3c4c(nc(OCCCN5CCOCC5)nc4c2F)N2C[C@H]4CC[C@H](N4)[C@H]2[C@H](C)O3)c1C(F)(F)F [Compound 138, 2-Fluoro-5-((5S,5aS,6S,9R)-1-fluoro-5-methyl-12-(3-morpholinopropoxy)-5a,6,7,8,9,10-hexahydro-5H-4-oxa-3,10a,11,13,14-pentaaza-6,9-methanonaphtho[1,8-ab]heptalen-2-yl)-3-methyl-4-(trifluoromethyl)aniline] | 2550 | 15.1
10 | Cc1cc(N)cc(-c2nc3c4c(nc(OC[C@@H]5CC[C@H]6COCCN65)nc4c2F)N2C[C@H]4CC[C@H](N4)[C@H]2[C@H](C)O3)c1C(F)(F)F [Compound 67, 3-((5S,5aS,6S,9R)-1-Fuoro-1-(((6S,8aS)-hexahydro-1H-pyrrolo[2,1-c][1,4]oxazin-6-yl)methoxy)-5-methyl-5a,6,7,8,9,10-hexahydro-5H-4-oxa-3,10a,11,13,14-pentaaza-6,9-methanonaphtho[1,8-ab]heptalen-2-yl)-5-methyl-4-(trifluoromethyl)aniline] | 639 | 2.79
11 | Cc1cc(N)cc(-c2nc3c4c(nc(OC[C@@]56CCCN5C[C@H](F)C6)nc4c2F)N2C[C@H]4CC[C@H](N4)[C@H]2[C@H](C)O3)c1Cl [Compound 74, 4-Chloro-3-((5S,5aS,6S,9R)-1-fluoro-12-(((2R,7aS)-2-fluorotetrahydro-1H-pyrrolizin-7a(5H)-yl)methoxy)-5-methyl-5a,6,7,8,9,10-hexahydro-5H-4-oxa-3,10a,11,13,14-pentaaza-6,9-methanonaphtho[1,8-ab]heptalen-2-yl)-5-methylaniline] | 2040 | 5.7
12 | Cc1c(F)c(N)cc(-c2nc3c4c(nc(OC[C@@H]5CC[C@@H]6CC(C(=O)N(C)C)CCN65)nc4c2F)N2C[C@H]4CC[C@H](N4)[C@H]2[C@H](C)O3)c1C(F)(F)F (single isomer, unassigned) [133 (isomer 3)] | 659 | 36.3
13 | Cc1nc(N)cc(-c2nc3c4c(nc(OCC5(CN6CCCC67CCOC7)CC5)nc4c2F)N2C[C@H]4CC[C@H](N4)[C@H]2[C@H](C)O3)c1C(F)(F)F (stereo partly drawn) [Compound 282, 4-((5S,5aS,6S,9R)-12-((1-((7-oxa-1-azaspiro[4.4]nonan-1-yl)methyl)cyclopropyl)methoxy)-1-fluoro-5-methyl-5a,6,7,8,9,10-hexahydro-5H-4-oxa-3,10a,11,13,14-pentaaza[6,9]methanonaphtho[1,8-ab]heptalene-2-yl)-6-methyl-5-(trifluoromethyl)pyridin-2-amine] | 2450 | 3.96
14 | C[C@@H]1Oc2nc(-c3cc(N)ccc3C(C)(C)C)c(F)c3nc(OC[C@@]45CCCN4C[C@H](F)C5)nc(c23)N2C[C@H]3CC[C@H](N3)[C@@H]12 [Compound 117, 4-(tert-butyl)-3-((5S,5aS,6S,9R)-1-fluoro-12-(((2R,7aS)-2-fluorotetrahydro-1H-pyrrolizin-7a(5H)-yl)methoxy)-5-methyl-5a,6,7,8,9,10-hexahydro-5H-4-oxa-3,10a,11,13,14-pentaaza-6,9-methanonaphtho[1,8-ab]heptalen-2-yl)aniline] | 4740 | 148
15 | Cc1c(F)c(N)cc(-c2nc3c4c(nc(OC[C@@]56CCCN5C[C@H](F)C6)nc4c2F)N2C[C@H]4CC[C@H](N4)[C@H]2[C@H](C(F)(F)F)O3)c1CC(F)F [Compound 250, 4-(2,2-Difluoroethyl)-2-fluoro-5-((5R,5aS,6S,9R)-1-fluoro-12-(((2R,7aS)-2-fluorotetrahydro-1H-pyrrolizin-7a(5H)-yl)methoxy)-5-(trifluoromethyl)-5a,6,7,8,9,10-hexahydro-5H-4-oxa-3,10a,11,13,14-pentaaza-6,9-methanonaphtho[1,8-ab]heptalene-2-yl)-3-methylaniline] | 994 | 16.9
16 | C[C@@H]1Oc2nc(-c3cc(N)nc(C(F)F)c3C(F)(F)F)c(F)c3nc(OC[C@@]45CCCN4C[C@H](F)C5)nc(c23)N2C[C@H]3CC[C@H](N3)[C@@H]12 [Compound 260, 6-(Difluoromethyl)-4-((5S,5aS,6S,9R)-1-fluoro-12-(((2R,7aS)-2-fluorotetrahydro-1H-pyrrolizin-7a(5H)-yl)methoxy)-5-methyl-5a,6,7,8,9,10-hexahydro-5H-4-oxa-3,10a,11,13,14-pentaaza-6,9-methanonaphtho[1,8-ab]heptalen-2-yl)-5-(trifluoromethyl)pyridin-2-amine] | 3250 | 41.5
17 | Cc1c(F)c(N)cc(-c2nc3c4c(nc(OCC5CN(CC(F)F)C5)nc4c2F)N2C[C@H]4CC[C@H](N4)[C@H]2[C@H](C)O3)c1C(F)(F)F [Compound 128, 5-((5S,5aS,6S,9R)-12-((1-(2,2-Difluoroethyl)azetidin-3-yl)methoxy)-1-fluoro-5-methyl-5a,6,7,8,9,10-hexahydro-5H-4-oxa-3,10a,11,13,14-pentaaza-6,9-methanonaphtho[1,8-ab]heptalen-2-yl)-2-fluoro-3-methyl-4-(trifluoromethyl)aniline] | 5060 | 51.5
